The subject of one data set is Leishmania major. The experiment in a line: Antileishmanial activity against Leishmania major IR-173 promastigotes assessed as inhibition of parasite growth incubated for 72 hrs by resazurin dye based assay. Type of data set: functional, organism-based. The following applies: IR-173, 72 h. (In general: Resazurin is reduced to fluorescent resorufin, in cell work by metabolically active cells.)

A further data set concerns CHO. Description: Cytotoxicity against CHO cells assessed as reduction in cell viability by MTT assay. The following applies: Cricetulus griseus. Type of data set: cell-based.
In data set [1] the test system is Plasmodium falciparum. The experiment in a line: Antiplasmodial activity against chloroquine-resistant Plasmodium falciparum Dd2 by LDH assay. The class given is functional, organism-based.
The subject of data set [2] is Plasmodium falciparum. Description: Antiplasmodial activity against chloroquine-sensitive Plasmodium falciparum NF54 by LDH assay. The class given is functional, organism-based.
A short description of data set [3]: Selectivity index, ratio of IC50 for CHO cells to IC50 for antileishmanial activity against Leishmania donovani 1S by resazurin dye based assay. The class given is toxicity. The following applies: hamster, read-out: Ratio IC50.
In data set [4] the test system is Leishmania donovani. Description: Antileishmanial activity against Leishmania donovani 1S promastigotes assessed as inhibition of parasite growth incubated for 72 hrs by resazurin dye based assay. Type of data set: functional, organism-based.
A short description of data set [5]: Selectivity index, ratio of IC50 for CHO cells to IC50 for antileishmanial activity against Leishmania donovani 9515 by resazurin dye based assay. Type of data set: toxicity. To be noted: hamster, read-out: Ratio IC50.
The nature of another data set: in vitro. To be noted: hamster, CHO cells.
Data set [6] concerns Leishmania donovani. Description: Antileishmanial activity against Leishmania donovani 9515 promastigotes assessed as inhibition of parasite growth incubated for 72 hrs by resazurin dye based assay. Type of data set: functional, organism-based. The following applies: Leishmania donovani, 9515, 72 h.

The structures appear in SMILES notation. pIC50: −log10 of the molar value.

Broadly, the pIC50 is the negative decadic logarithm of the IC50, by convention in mol/L.

Regarding `COc1ccc2nc3cc(Cl)ccc3c(N3CCNCC3)c2c1`, the pIC50 is 5.45 in the data set on Leishmania major; 5.47 in the data set on CHO; 5.78 in the data set on Plasmodium falciparum [1]; 5.83 in the data set on Plasmodium falciparum [2]; 5.49 in the data set on Leishmania donovani [4]; 5.49 in the data set with Leishmania donovani [6]. Further, the selectivity ratio in [3] came out at 1.1; in data set [5], 1; in the data set “in vitro” it was 1.

Regarding `C[C@@H]1CC[C@H]2C(C)(CO)O[C@@H]3O[C@@]4(C)CC[C@@H]1[C@]32OO4` (stereo not given in full), the pIC50 in the data set with Leishmania major is less than 4.00; in the data set with CHO, less than 4.00; in the data set on Plasmodium falciparum [1] it was 8.13; with Plasmodium falciparum [2], 8.39; in the data set with Leishmania donovani [4] it was less than 4.00; in the data set with Leishmania donovani [6] it was less than 4.00. For the same compound, the selectivity ratio (in data set [5]; in “in vitro”) was 1 in each case.

`CO[C@H]1O[C@@H]2O[C@@]3(C)CC[C@H]4[C@H](C)CC[C@@H]([C@H]1C)[C@@]24OO3`: the negative logarithm of the IC50 (pIC50) is 4.65 in the data set on Leishmania major, less than 4.00 with CHO, 4.37 in the data set with Leishmania donovani [4] and 4.04 in the data set with Leishmania donovani [6]. For the same compound, the selectivity ratio was 1 in data set [3], 2 in data set [5] and 4 in “in vitro”.

Consider `COc1ccc2nc3cc(Cl)ccc3c(NCCN)c2c1`, for which the pIC50 with Leishmania major was 5.68; in the data set with CHO it was 6.00; with Plasmodium falciparum [1] it was 7.09; in the data set with Plasmodium falciparum [2], 7.86; in the data set on Leishmania donovani [4] it was 5.65; in the data set with Leishmania donovani [6] it was 5.55. Further, the selectivity ratio in data set [3] came out at 0.4; in data set [5], 0.4; in “in vitro”, 0.5.

As for `CCCCCC(=O)OCC1(C)O[C@@H]2O[C@@]3(C)CC[C@H]4[C@H](C)CC[C@@H]1[C@@]24OO3` (stereo not given in full), the pIC50 with Leishmania major was 4.86; in the data set on CHO, less than 4.00; in the data set with Plasmodium falciparum [1], 7.36; in the data set with Plasmodium falciparum [2] it was 7.22; in the data set on Leishmania donovani [4], 4.59; in the data set on Leishmania donovani [6] it was 4.64. In addition, the selectivity ratio was greater than 4 in data set [3], 4 in data set [5] and 7 in the data set “in vitro”.

As for `COc1ccc2nc3cc(Cl)ccc3c(NCCCN(C)CCO[C@H]3O[C@@H]4O[C@@]5(C)CC[C@H]6[C@H](C)CC[C@@H]([C@H]3C)[C@@]46OO5)c2c1`, the pIC50 is 6.64 in the data set with Leishmania major; 5.92 in the data set with CHO; 7.41 in the data set on Plasmodium falciparum [1]; 7.91 in the data set with Plasmodium falciparum [2]; 6.43 in the data set on Leishmania donovani [4]; 6.77 with Leishmania donovani [6]. The selectivity ratio was 7 in [3], 3 in [5] and 5 in “in vitro”.

Take `CC(=O)OCC1(C)O[C@@H]2O[C@@]3(C)CC[C@H]4[C@H](C)CC[C@@H]1[C@@]24OO3` (stereo not given in full): the negative logarithm of the IC50 (pIC50) with Leishmania major was 4.38; in the data set on CHO, less than 4.00; in the data set with Plasmodium falciparum [1] it was 7.90; in the data set with Plasmodium falciparum [2], 7.95; in the data set on Leishmania donovani [4], 4.07; with Leishmania donovani [6], less than 4.00. The results for the selectivity ratio (in data set [5]; in the data set “in vitro”) were 1 and 2, respectively.

With `C[C@@H]1CC[C@H]2C(C)(COC(=O)CCc3ccccc3)O[C@@H]3O[C@@]4(C)CC[C@@H]1[C@]32OO4` (stereo not given in full), the pIC50 with Leishmania major was 5.20; in the data set with CHO, less than 4.00; in the data set on Plasmodium falciparum [1], 7.94; in the data set with Plasmodium falciparum [2], 8.13; with Leishmania donovani [4], 4.61; in the data set on Leishmania donovani [6] it was 4.61. The selectivity ratio is greater than 4 in data set [3], 4 in data set [5] and 16 in “in vitro”.

On to `C[C@@H]1CC[C@H]2C(C)(COC(=O)c3cc4ccccc4o3)O[C@@H]3O[C@@]4(C)CC[C@@H]1[C@]32OO4` (stereo not given in full), for which the pIC50 was 4.95 with Leishmania major; less than 4.00 in the data set on CHO; 8.15 in the data set on Plasmodium falciparum [1]; 7.84 with Plasmodium falciparum [2]; 4.87 in the data set on Leishmania donovani [4]; 4.99 with Leishmania donovani [6]. The figures for the selectivity ratio (in data set [3]; in data set [5]; in “in vitro”) were greater than 10, 7 and 9, respectively.

On to `C[C@@H]1CC[C@H]2C(C)(COC(=O)[C@H]3CCCN3C(=O)C(F)(F)F)O[C@@H]3O[C@@]4(C)CC[C@@H]1[C@]32OO4` (stereo not given in full), for which the pIC50 in the data set with Leishmania major is 4.81; with CHO it was less than 4.00; in the data set on Plasmodium falciparum [1] it was 8.11; with Plasmodium falciparum [2], 8.10; in the data set on Leishmania donovani [4], 5.03; in the data set on Leishmania donovani [6], 4.42. Besides, the selectivity ratio amounted to 3 in data set [3], 11 in data set [5] and 4 in the data set “in vitro”.

`COc1ccc2nc3cc(Cl)ccc3c(N3CCN(CCO[C@H]4O[C@@H]5O[C@@]6(C)CC[C@H]7[C@H](C)CC[C@@H]([C@H]4C)[C@@]57OO6)CC3)c2c1`: the pIC50 in the data set on Leishmania major was 5.32; with CHO, less than 4.00; in the data set with Plasmodium falciparum [1] it was 6.37; in the data set on Plasmodium falciparum [2] it was 6.57; with Leishmania donovani [4], 4.27; in the data set on Leishmania donovani [6], 4.49. For the same compound, the selectivity ratio in [3] stood at 5; in data set [5] it was 3; in the data set “in vitro”, 33.

Turning to `CCCC(=O)OCC1(C)O[C@@H]2O[C@@]3(C)CC[C@H]4[C@H](C)CC[C@@H]1[C@@]24OO3` (stereo not given in full), the pIC50 in the data set with Leishmania major is 4.92; in the data set on CHO it was less than 4.00; in the data set with Plasmodium falciparum [1] it was 8.16; in the data set with Plasmodium falciparum [2] it was 7.77; in the data set on Leishmania donovani [4] it was 4.91; with Leishmania donovani [6], 4.35. Also, the values for the selectivity ratio (in [3]; in [5]; in the data set “in vitro”) were greater than 2, 8 and 8, respectively.

For the compound `COc1ccc2nc3cc(Cl)ccc3c(N3CCNC(C)C3)c2c1` (stereo not given), the negative logarithm of the IC50 (pIC50) with Leishmania major was 5.46; with CHO it was 5.25; in the data set on Plasmodium falciparum [1], 6.42; with Plasmodium falciparum [2] it was 6.80; in the data set with Leishmania donovani [4] it was 5.38; in the data set with Leishmania donovani [6] it was 5.45. The selectivity ratio in [3] stood at 1.6; in data set [5] it was 1.4; in “in vitro”, 1.6.

In the case of `C[C@@H]1CC[C@H]2C(C)(COC(=O)c3ccc(F)cc3)O[C@@H]3O[C@@]4(C)CC[C@@H]1[C@]32OO4` (stereo not given in full), the negative-log IC50 (pIC50) in the data set with Leishmania major was 5.12; in the data set on CHO, less than 4.00; in the data set with Plasmodium falciparum [1] it was 8.36; in the data set with Plasmodium falciparum [2], 8.43; with Leishmania donovani [4] it was 5.00; in the data set on Leishmania donovani [6], 5.09. In addition, the selectivity ratio in data set [3] is greater than 12; in [5], 10; in “in vitro”, 13.

On to `C[C@H]1[C@@H](O)O[C@@H]2O[C@@]3(C)CC[C@H]4[C@H](C)CC[C@@H]1[C@@]24OO3` [ARTENIMOL], for which the pIC50 in the data set on Leishmania major is 4.37; with CHO, less than 4.00; in the data set on Plasmodium falciparum [1] it was 8.92; in the data set on Plasmodium falciparum [2] it was 8.66; in the data set on Leishmania donovani [4] it was 4.57; in the data set with Leishmania donovani [6], 4.51. For the same compound, the values for the selectivity ratio (in data set [3]; in data set [5]; in “in vitro”) were 3, 4 and 2, respectively.

Turning to `C[C@H]1[C@H](OC(=O)CCC(=O)O)O[C@@H]2O[C@@]3(C)CC[C@H]4[C@H](C)CC[C@@H]1[C@@]24OO3` [SODIUM ARESUNATE], the pIC50 in the data set with Leishmania major is 4.21; in the data set with CHO it was less than 4.00; with Plasmodium falciparum [2], 8.10; in the data set with Leishmania donovani [4], 4.20; in the data set with Leishmania donovani [6] it was 4.10. The selectivity ratio came out at 1 in data set [3], 1.6 in data set [5] and 1.6 in the data set “in vitro”.

On to `COc1ccc2nc3cc(Cl)ccc3c(NCCNCCO[C@H]3O[C@@H]4O[C@@]5(C)CC[C@H]6[C@H](C)CC[C@@H]([C@H]3C)[C@@]46OO5)c2c1`, for which the pIC50 with Leishmania major was 6.54; with CHO, 5.80; with Plasmodium falciparum [1], 7.45; in the data set on Plasmodium falciparum [2], 8.59; in the data set with Leishmania donovani [4] it was 6.42; in the data set on Leishmania donovani [6] it was 6.49. The selectivity ratio in data set [3] was determined as 5; in data set [5], 4; in the data set “in vitro”, 6.

In the case of `C[C@@H]1CC[C@H]2C(C)(COC(=O)c3ccc([N+](=O)[O-])cc3)O[C@@H]3O[C@@]4(C)CC[C@@H]1[C@]32OO4` (stereo not given in full), the pIC50 in the data set on Leishmania major was 5.24; in the data set on CHO, less than 4.00; with Plasmodium falciparum [1] it was 8.59; in the data set with Plasmodium falciparum [2], 8.17; with Leishmania donovani [4] it was 5.29; in the data set on Leishmania donovani [6], 5.37. The results for the selectivity ratio (in data set [3]; in data set [5]; in “in vitro”) were greater than 24, 19 and 18, respectively.

For the compound `COc1ccc2nc3cc(Cl)ccc3c(N3CCN(CCO[C@H]4O[C@@H]5O[C@@]6(C)CC[C@H]7[C@H](C)CC[C@@H]([C@H]4C)[C@@]57OO6)C(C)C3)c2c1` (stereo not given in full), the pIC50 in the data set with Leishmania major is 6.16; with CHO, 5.22; in the data set with Plasmodium falciparum [1], 7.38; with Plasmodium falciparum [2] it was 7.77; in the data set on Leishmania donovani [4], 5.62; with Leishmania donovani [6], 5.80. For the same compound, the results for the selectivity ratio (in [3]; in data set [5]; in the data set “in vitro”) were 4, 5 and 9, respectively.

For the compound `C[C@@H]1CC[C@H]2C(C)(COC(=O)c3ccco3)O[C@@H]3O[C@@]4(C)CC[C@@H]1[C@]32OO4` (stereo not given in full), the pIC50 with Leishmania major was less than 4.00; with CHO, less than 4.00; in the data set with Plasmodium falciparum [1], 8.51; with Plasmodium falciparum [2] it was 8.04; in the data set with Leishmania donovani [4], less than 4.00; with Leishmania donovani [6], less than 4.00. In addition, the selectivity ratio (in data set [5]; in the data set “in vitro”) was 1 each time.

On to `CC[C@H]1CN2CCc3cc(OC)c(OC)cc3[C@@H]2C[C@@H]1C[C@H]1NCCc2cc(OC)c(OC)cc21` [EMETINE], for which, in the data set with CHO, the negative-log IC50 (pIC50) is 6.54.

The values are drawn from ChEMBL document CHEMBL4699524 (Bioorg Med Chem Lett, 2020).
